Data on 8 compounds can be found in US12419874B2, “GLP-1R agonist compound and use thereof” (Chongqing Pharmaceutical Research Institute Co., Ltd., priority 2024, dated 2025).

In data set [1] the target is T1, GLP-1R (Homo sapiens, UniProt P43220). As to the kind of experiment: GLP-1R agonistic activity by cAMP detection kit in HEK293-GLP-1R-luc cells (Example 58). The data set is classed as cell-based. Particulars: 30 min incubation. On the procedure:
The agonistic activities of the compounds of the present disclosure on GLP-1R were evaluated by detecting the generation of cAMP.
• (1) Cell line: HEK293-GLP-1R-luc Stable Cell Line (Cobioer, CBP71117); • (2) Culture medium: DMEM+10% FBS (Gibco); • (3) Kit: cAMP detection kit (PerkinElmer). 2. Experimental Procedures • (1) HEK293-GLP1R cells were inoculated in a 384-well plate at a density of 2000 cells per well; • (2) 4× working solution of each compound was formulated; • (3) 5 μL of 4× working solution of each compound was added to corresponding well and incubated at 37° C. for 30 min; • (4) 10 μL of Eu-cAMP tracer diluted with Lysis Buffer (1/50) was added to each well; • (5) 10 μL of Ulight-anti-cAMP diluted with Lysis Buffer (1/150) was added to each well; • (6) The plate was incubated at room temperature for 1 h; • (7) The plate was read by a multimode microplate reader (excitation wavelength: 320 nm; emission wavelength: 665 nm and 620 nm). 3. Data Analysis • (1) % Activity was calculated by the following formula: % Activity=100−(Signalcmpd−SignalAve-PC)/(SignalAve-VC−SignalAve-PC)×100 • (2) The dose-response curve was plotted to calculate EC50: Y=Bottom+(Top−Bottom)/(1+10^(Log EC50−X)*HillSlope)) • X: log of agonist concentration; Y: Activity. 4. Experimental Results

In data set [2] the target is T1, GLP-1R. As to the kind of experiment: GLP-1R agonistic activity by One-Lite luciferase assay in HEK293-GLP-1R-luc cells (Example 59). Type of data set: cell-based. Particulars: 6 h incubation, read-out: cAMP EC50. The gist of the method:
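HEK293 cells stably expressing GLP-1R with a cAMP-responsive luciferase reporter, 30000 cells/well, exposed to compound for 6 h at 37 °C. Chemiluminescence read after 3 min with One-Lite substrate at room temperature; % activity normalised to positive and vehicle controls, EC50 from a four-parameter dose-response fit.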

Data set [3] is described as follows: In vivo pharmacokinetics in rats, oral. The note with it: for AUC(0-t) / Cmax / half-life: rat, plasma, SD rats, PO; for maximum plasma concentration Cmax compared with the control compound / oral exposure AUC compared with the control compound: rats, oral, versus example compound 67 in WO2018056453, in words. On the set-up: species or system SD rats. On the procedure:
The compounds of the present disclosure were formulated with […]+90% 100 mM glycine-64 mM NaOH, and orally administered to fasted SD rats at a dose of 1 mg/kg or 5 mg/kg, respectively. At different time points (0.25, 0.5, 1.0, 2.0, 4.0, 5.0, 6.0, 7.0, 8.0, and 24 h) after administration, about 50 μL of blood samples were collected from veins into anticoagulant tubes containing EDTA-K2, and centrifuged to separate plasma. The plasma concentrations of the compounds were determined by LC-MS/MS. WinNonlin was used to calculate the pharmacokinetic parameters by using the non-compartmental analysis, and the experimental results were listed in Table 9.

Data set [4] is described as follows: In vivo pharmacokinetics in Macaca fascicularis, intravenous. As to the method: A clear solution of “example compound 67 in WO2018056453” in 10% PEG/90% 100 mM glycine-NaOH and a clear solution of “Compound 1” in 10% PEG/90% 100 mM glycine-NaOH were prepared. The above solutions were injected into subcutaneous veins of the fore limbs of male Macaca fascicularis (n=2) at a dose of 0.12 mg/kg, respectively. At different time points (0.083, 0.25, 0.5, 1.0, 2.0, 4.0, 8.0, 24.0, and 36 h) after administration, blood samples were collected from veins into anticoagulant tubes containing EDTA-K2, and centrifuged to separate plasma.
The drug concentrations in the plasma were determined by the LC-MS/MS method, and the pharmacokinetic software (e.g., winNonlin Version 6.3) was used to calculate the related pharmacokinetic parameters as shown in Table 10 by using the log-linear trapezoidal rule of the non-compartmental analysis.

The test system of data set [5] is GLP-1R humanized C57BL/6N mice fed with high-fat diets. Briefly: In vivo efficacy on body weight and food intake in high-fat diet hGLP-1R mice. The note with it: for Cumulative Food Intake on Day 27 / Change Rate of Body Weight on Day 27: gavage once daily; for Change Rate of Body Weight on Day 27: corrected by Vehicle. On the procedure:
The effects of long-term administration of the compounds of the present disclosure on the weight and food intake of GLP-1R humanized C57BL/6N mice fed with high-fat diets were evaluated.
• five-week-old male C57BL/6N hGLP-1R mice; • 60% high-fat diet (HFD); electronic balance. 3. Experimental Method • (1) C57BL/6N_hGLP-1R mice were fed with 60% high-fat diets until the end of the experiment. • (2) At the 10th week of HFD feeding, the model mice were randomly divided into groups according to their body weight, with 6 to 7 mice in each group. Subsequently, the single-caged mice were adaptively fed for 2 weeks. The first group was Vehicle group (Vehicle: 10% PEG 400+10% propylene glycol+80% glycine-NaOH buffer), and administered with the Vehicle; the remaining groups were drug treatment groups; the duration of administration was 27 days. • (3) The day of drug administration was defined as Day 0. At each administration, the animals were weighed and the data were recorded, and the mice were treated depending upon their body weight. • (4) The food intake of the mice in each group was measured once a day from Day 0 of the experiment. Specifically, the diets were changed after each weighing and administration, and the addition amounts and residual amounts thereof were recorded. 4. Experimental Data Processing and Statistical Analysis
The rates of change in the body weight of mice after administration were summarized and statistically analyzed.
The rate of change in the body weight corrected by Vehicle was calculated: (((BWt/BW0)−1)−(BWt-vec-avg))*100%;
BWt represented the body weight of mouse in drug treatment group on Day t; BW0 represented the body weight of mouse in drug treatment group on Day 0; BWt-vec-avg represented the average body weight of mice in Vehicle group on Day t for drug treatment groups.
The cumulative food intake of mice after drug administration was summarized and statistically analyzed.
Cumulative food intake was calculated: addition amounts (g)—residual amounts (g).
The cumulative food intake was the sum of daily food intake of each animal during the period of administration.

The mark [6] stands for this setting: Macaca fascicularis, versus example compound 67 in WO2018056453, in words.
Where [7] appears, read: cynomolgus monkey, plasma, male Macaca fascicularis, 0.12 mg/kg.

Where only a bound is given, the exact number is not on record here.

T1 sequence (P43220 24-463): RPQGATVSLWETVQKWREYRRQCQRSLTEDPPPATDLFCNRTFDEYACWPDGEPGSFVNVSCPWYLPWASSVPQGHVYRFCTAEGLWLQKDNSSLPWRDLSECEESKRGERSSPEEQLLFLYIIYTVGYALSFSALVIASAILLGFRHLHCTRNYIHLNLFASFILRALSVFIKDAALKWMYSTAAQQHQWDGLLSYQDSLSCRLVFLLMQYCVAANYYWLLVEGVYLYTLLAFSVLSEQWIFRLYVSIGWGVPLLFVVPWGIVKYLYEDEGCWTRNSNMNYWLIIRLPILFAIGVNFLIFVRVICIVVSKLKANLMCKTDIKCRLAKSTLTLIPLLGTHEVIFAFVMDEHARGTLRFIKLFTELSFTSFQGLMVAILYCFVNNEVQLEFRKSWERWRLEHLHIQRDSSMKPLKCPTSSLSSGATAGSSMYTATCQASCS

On GLP-1R [1], `Cc1cc(-n2nc3c(c2-n2ccn(-c4ccc5c(cnn5C)c4F)c2=O)[C@H](C)N(C(=O)c2cc4cc([C@H]5CCOC(C)(C)C5)ccc4n2[C@@]2(c4noc(=O)[nH]4)C[C@@H]2C)CC32CC2)cc(C)c1F` [Compound 1] displayed an EC50 not above 0.1 nM. The concentration giving a half-maximal response (EC50) at GLP-1R [2] was not above 20 nM. Besides, in data set [3] (1 mg/kg), the AUC(0-t) stood at 2300 ng·h/mL, the concentration peaked (Cmax) at 213 ng/mL and the half-life is 10 h. In data set [3] (5 mg/kg), this compound gave an AUC(0-t) of 11800 ng·h/mL, a Cmax of 1080 ng/mL and a half-life of 12.9 h. In data set [3], the “maximum plasma concentration Cmax compared with the control compound” value is reported as “higher” and the “oral exposure AUC compared with the control compound” value is recorded as “higher”. In data set [4] (setting [6]), the “clearance (Cl) compared with the control compound” value is given as “lower”, the “exposure (AUC) compared with the control compound” value was “higher” and the “half-life (T1/2) compared with the control compound” value was “longer”. Also, in data set [4] (setting [7]), the AUC(0-t) worked out at 754 ng·h/mL, the clearance is 2.63 mL/min/kg and the half-life was 6.08 h. Further, in data set [5] (0.3 mpk), the “Cumulative Food Intake on Day 27” value came out at 73.91 ± 6.71 g and the “Change Rate of Body Weight on Day 27” value is listed as −15.04 ± 1.90%. Moreover, in data set [5] (1.5 mpk), the “Cumulative Food Intake on Day 27” value is reported as 70.01 ± 5.88 g and the “Change Rate of Body Weight on Day 27” value is −18.46 ± 1.98%. Moreover, in data set [5] (3.0 mpk), the “Cumulative Food Intake on Day 27” value worked out at 62.75 ± 6.97 g and the “Change Rate of Body Weight on Day 27” value is −23.78 ± 1.61%. Besides, the “reduction of the body weight and inhibition of the food intake” value in data set [5] (long-term administration, 0.3 to 3 mpk, in words) is “excellent effects”.
As for `C=C1CC2(C1)CN(C(=O)c1cc3cc([C@H]4CCOC(C)(C)C4)ccc3n1[C@@]1(c3noc(=O)[nH]3)C[C@@H]1C)[C@@H](C)c1c2nn(-c2cc(C)c(F)c(C)c2)c1-n1ccn(-c2ccc3c(cnn3C)c2F)c1=O` [Compound 218], the half-maximal effective concentration (EC50) on GLP-1R [2] is not above 20 nM. In data set [3] (1 mg/kg), this compound had an AUC(0-t) of 990 ng·h/mL, a maximum concentration (Cmax) of 110 ng/mL and a half-life of 11.6 h.
Turning to `Cc1cc(-n2nc3c(c2-n2ccn(-c4ccc5c(cnn5C)c4F)c2=O)[C@H](C)N(C(=O)c2cc4cc([C@H]5CCOC(C)(C)C5)ccc4n2[C@@]2(c4noc(=O)[nH]4)C[C@@H]2C)CC32CCOCC2)cc(C)c1F` [Compound 43], the EC50 on GLP-1R [1] is not above 0.1 nM; at GLP-1R [2], not above 20 nM.
`Cc1cc(-n2nc3c(c2-n2ccn(-c4ccc5c(cnn5C)c4F)c2=O)[C@H](C)N(C(=O)c2cc4cc([C@H]5CCOC(C)(C)C5)ccc4n2[C@@]2(c4noc(=O)[nH]4)C[C@@H]2C)CC32CCN(C)CC2)cc(C)c1F` [Compound 59]: the values for the concentration for a half-maximal effect (EC50) on GLP-1R [1] and at GLP-1R [2] were not above 0.1 nM and not above 20 nM, respectively.
Regarding `Cc1cc(-n2nc3c(c2-n2ccn(-c4ccc5c(cnn5C)c4F)c2=O)[C@H](C)N(C(=O)c2cc4cc([C@H]5CCOC(C)(C)C5)ccc4n2[C@@]2(c4noc(=O)[nH]4)C[C@@H]2C)CC32CC2F)cc(C)c1F` (some centres unmarked) [Compound 228], on GLP-1R [2], the EC50 is not above 20 nM. In data set [3] (1 mg/kg), this compound showed an AUC(0-t) of 2400 ng·h/mL, a Cmax of 216 ng/mL and a half-life of 13 h. Besides, in data set [3], the “maximum plasma concentration Cmax compared with the control compound” value is “higher” and the “oral exposure AUC compared with the control compound” value was “higher”.
With `Cc1cc(-n2nc3c(c2-n2ccn(-c4ccc5c(cnn5C)c4F)c2=O)[C@H](C)N(C(=O)c2cc4cc([C@H]5CCOC(C)(C)C5)ccc4n2[C@@]2(c4noc(=O)[nH]4)C[C@@H]2C)CC32C[C@H]2C)cc(C)c1F` (some centres unmarked) [Compound 226], at GLP-1R [2], the EC50 was not above 20 nM. For the same compound, in data set [3] (1 mg/kg), the exposure AUC(0-t) was 1480 ng·h/mL, the Cmax turned out to be 160 ng/mL and the half-life is 9.3 h.
Consider `Cc1cc(-n2nc3c(c2-n2ccn(-c4ccc5c(cnn5C)c4F)c2=O)[C@H](C)N(C(=O)c2cc4cc([C@H]5CCOC(C)(C)C5)ccc4n2[C@@]2(c4noc(=O)[nH]4)C[C@@H]2C)CC32CCNCC2)cc(C)c1F` [Compound 57], for which the values for the EC50 at GLP-1R [1] and at GLP-1R [2] were not above 0.1 nM and not above 20 nM, respectively.
For `Cc1cc(-n2nc3c(c2-n2ccn(-c4ccc5c(cnn5C)c4F)c2=O)[C@H](C)N(C(=O)c2cc4cc([C@H]5CCOC(C)(C)C5)ccc4n2[C@@]2(c4noc(=O)[nH]4)C[C@@H]2C)CC32CC(F)(F)C2)cc(C)c1F` [Compound 180], the EC50 on GLP-1R [2] was not above 20 nM. In data set [3] (1 mg/kg), this compound gave an exposure AUC(0-t) of 1120 ng·h/mL, a Cmax of 129 ng/mL and a half-life of 6.4 h.
